# Experimental data published in PMC8653295 (Chemistry (Weinheim an Der Bergstrasse, Germany), 2021).
# Where “and” joins values, the source holds several entries; their conditions need not be identical. Identical values can stand only once.
# Assays:
# [1] = target: interaction of the RBD of the SARS‐CoV‐2 S protein with the ACE2 receptor (Severe acute respiratory syndrome coronavirus 2, UniProt P0DTC2); format: binding; conditions: for inhibition of the S/ACE2 interaction: 20 µM
# SARS‐CoV PL^pro = SARS‐CoV PL^pro (Severe acute respiratory syndrome coronavirus, UniProt P0C6X7); test: biochemical; format: biochemical; conditions: for inhibition of SARS-CoV PLpro: 10 µM
# SARS‐CoV‐2 PL^pro = SARS‐CoV‐2 PL^pro (Severe acute respiratory syndrome coronavirus 2, UniProt P0DTD1); test: biochemical; format: biochemical; conditions: for inhibition of SARS-CoV-2 PLpro: 1 µM
Compound,inhibition of the S/ACE2 interaction [1],inhibition of SARS-CoV PLpro (SARS‐CoV PL^pro),inhibition of SARS-CoV-2 PLpro (SARS‐CoV‐2 PL^pro),other results
Cc1ccc(C(C)C)cc1.[Cl-].[Cl-].[Ru+2].[c-]1n(Cc2ccccc2)cc[n+]1Cc1ccccc1 [Ru‐9],2%,12%,10%,–
Cn1[c]([Au-][c]2n(C)c3ccccc3[n+]2C)[n+](C)c2ccccc21.[I-] [Au‐21],22%,11%,10%,–
"O=[N+]([O-])[O-].[Ag+] [Ag‐1, silver nitrate, reference compound]",6%,100%,72%,activity against SARS‐CoV PL^pro (in words) (SARS‐CoV PL^pro): completely inhibited; IC50 (SARS‐CoV‐2 PL^pro): 450 ± 210 nM
Cc1cn(CC=C[c-]2cccc2)c(=O)[nH]c1=O.[Ru+2].c1cc[cH-]c1 [Ru‐17],26%,3%,-17%,–
C1=CCCC=CCC1.Cn1[c-][n+](C)c(-c2ccccc2)c1.[Cl-].[Rh+] [Rh‐8],12%,93%,35%,–
C1=CCCC=CCC1.Cn1[c-][n+](C)c(-c2ccc(F)cc2)c1.[Br-].[Rh+] [Rh‐11],14%,91%,48%,–
K6H2[CoW11TiO40] ⋅ 12H2O [POM‐4],82%,44%,7%,activity against SARS‐CoV PL^pro (in words) (SARS‐CoV PL^pro): active only against the enzyme from SARS‐CoV
O=C(NC1C(O)OC(CO)C(O)C1O)C1CCN(C(=S)[S][Au][PH](c2ccccc2)(c2ccccc2)c2ccccc2)CC1 (mixture of isomers) [Au‐36],0%,79%,74%,IC50 (SARS‐CoV PL^pro): 330 ± 160 nM; IC50 SARS‐CoV PL^pro (SARS‐CoV PL^pro): Submicromolar; IC50 (SARS‐CoV‐2 PL^pro): 140 ± 90 nM; IC50 SARS‐CoV‐2 PL^pro (SARS‐CoV‐2 PL^pro): Submicromolar
Cn1cc(-c2ccccc2)[n+](C)[c]1[Au-][c]1n(C)cc(-c2ccccc2)[n+]1C.[I-] [Au‐24],18%,12%,-17%,–
Cs3K[(HO2CC6H4CH2P)2Mo5O21] ⋅ 5H2O [POM‐8],9%,5%,7%,–
CC(C)n1cc(-c2ccccc2)n(C(C)C)[c]1=[Au][Cl] [Au‐16],10%,57%,41%,–
"[Au+3].[Cl-].[Cl-].[Cl-].[Cl-].[H+] [Au‐5, chloroauric acid, reference compound]",45%,89% and > 50%,72% and > 50%,–
Rb6Na6[{(p‐tolyl)Sb}4(GeW9 O34)2] ⋅ 40H2O [POM‐7],98%,92%,67%,cytotoxicity (in words) (Caco‐2 cells): strongly toxic; cytotoxicity (in words) (CaLu‐3 cells): strongly toxic
Cc1ccc(C(C)C)cc1.Cc1ccc2c(c1)[n+](Cc1ccccc1)[c-]n2Cc1ccccc1.[Br-].[Br-].[Ru+2] [Ru‐2],0%,20%,5%,–
C1=CCCC=CCC1.CCn1[c-][n+](CC)c(-c2ccc(F)cc2)c1.[I-].[Rh+] [Rh‐6],22%,70%,19%,–
CC(C)n1cc(-c2ccccc2)[n+](C(C)C)[c]1[Au-][c]1n(C(C)C)c(-c2ccccc2)c[n+]1C(C)C.[I-] [Au‐29],8%,24%,4%,–
Cn1cc(-c2ccccc2)n(C)[c]1=[Au][Cl] [Au‐14],17%,51%,23%,–
CCn1cc(-c2ccccc2)[n+](CC)[c]1[Au-][c]1n(CC)cc(-c2ccccc2)[n+]1CC.[I-] [Au‐23],23%,25%,-10%,–
((NH2)3C)4[(N3C6H4As)2Mo6O24] [POM‐10],6%,7%,4%,–
((NH2)3C)4[(BrC6H4As)2Mo6O24] ⋅ 2H2O [POM‐9],7%,13%,7%,–
CC[n+]1[c-]n(CC2(c3ccc(Cl)cc3Cl)OCC(COc3ccc(N4CCN(C(C)=O)CC4)cc3)O2)cc1.[Au+].[Cl-] (stereo not drawn) [Au‐19],16%,94% and > 80%,2%,–

Compound,inhibition of the S/ACE2 interaction [1],inhibition of SARS-CoV PLpro (SARS‐CoV PL^pro),inhibition of SARS-CoV-2 PLpro (SARS‐CoV‐2 PL^pro),other results
"CCP(CC)CC.[Au+].[Cl-] [Au‐3, (triethylphosphine)AuCl, reference compound]",24%,95% and > 50%,55% and > 50%,IC50 (SARS‐CoV PL^pro): 1200 ± 440 nM; IC50 (SARS‐CoV‐2 PL^pro): 1100 ± 120 nM
CC(C)n1[c]([Au-][c]2n(C(C)C)c3ccccc3[n+]2C(C)C)[n+](C(C)C)c2ccccc21.[Br-] [Au‐22],23%,39%,7%,–
"CC(=O)OC[C@H]1O[C@@H]([S-])[C@H](OC(C)=O)[C@@H](OC(C)=O)[C@@H]1OC(C)=O.CCP(CC)CC.[Au+] [Au‐1, auranofin, reference compound]",20%,58% and > 50%,51% and > 50%,–
C1=CCCC=CCC1.CCn1[c-][n+](CC)c(-c2ccc(F)cc2)c1.[Br-].[Rh+] [Rh‐5],5%,71%,19%,–
C1=CCCC=CCC1.CCn1[c-][n+](CC)c(-c2ccccc2)c1.[I-].[Rh+] [Rh‐3],0%,63%,15%,–
"C[CH2][Hg][S]c1ccccc1C(=O)[O-].[Na+] [Hg‐1, thiomersal, reference compound]",7%,-63%,9%,–
Cc1cn(C/C=C/[c-]2cccc2)c(=O)[nH]c1=O.Cc1cn(C/C=C/[c-]2cccc2)c(=O)[nH]c1=O.[Fe+2] [Fe‐12],28%,-4%,-8%,–
C1=CCCC=CCC1.Cn1[c-][n+](C)c(-c2ccc(F)cc2)c1.[Cl-].[Rh+] [Rh‐10],14%,90%,45%,–
Na6[TeW6O24] ⋅ 22H2O [POM‐5],–,49%,69%,concentration up to which no significant cytotoxic effects / tolerated well (Caco‐2 cells): ≥ 200 µM; concentration up to which no significant cytotoxic effects / tolerated well (CaLu‐3 cells): ≥ 200 µM
C1=CCCC=CCC1.CCn1[c-][n+](CC)c(-c2ccc(F)cc2)c1.[Cl-].[Rh+] [Rh‐4],6%,72%,17%,–
[Cl][Au-][c]1n(Cc2ccccc2)cc(-c2ccccc2)[n+]1Cc1ccccc1 [Au‐17],9%,-3%,13%,activity against SARS‐CoV PL^pro (in words) (SARS‐CoV PL^pro): inactive; activity against SARS‐CoV‐2 PL^pro (in words) (SARS‐CoV‐2 PL^pro): inactive
K7[Ti2PW10O40] ⋅ 6H2O [POM‐3],68%,63%,15%,–
"[Cl][Ti]([Cl])([Cl])[Cl] [Ti‐2, titanium(IV) tetrachloride, reference compound]",0%,-7%,-3%,activity against the S/ACE2 interaction (in words) [1]: inactive; activity against SARS‐CoV PL^pro (in words) (SARS‐CoV PL^pro): inactive; activity against SARS‐CoV‐2 PL^pro (in words) (SARS‐CoV‐2 PL^pro): inactive
C1=CCCC=CCC1.CCn1[c-][n+](CC)c(-c2ccccc2)c1.[Cl-].[Rh+] [Rh‐1],0%,67%,-4%,–
CCn1[c]([Au-][S]C(=S)N2CCC(C(=O)NC3C(O)OC(CO)C(O)C3O)CC2)[n+](CC)c2ccccc21 (mixture of isomers) [Au‐35],0%,85%,58%,IC50 SARS‐CoV PL^pro (SARS‐CoV PL^pro): Submicromolar; IC50 (SARS‐CoV‐2 PL^pro): 410 ± 140 nM; IC50 SARS‐CoV‐2 PL^pro (SARS‐CoV‐2 PL^pro): Submicromolar
C1=CCCC=CCC1.Cn1[c-][n+](C)c(-c2ccccc2)c1.[Br-].[Rh+] [Rh‐9],17%,94%,50%,IC50 (SARS‐CoV PL^pro): 6700 ± 2400 nM; IC50 SARS‐CoV PL^pro (SARS‐CoV PL^pro): low micromolar range; IC50 (SARS‐CoV‐2 PL^pro): 2200 ± 1000 nM; IC50 SARS‐CoV‐2 PL^pro (SARS‐CoV‐2 PL^pro): low micromolar range
COc1ccc(C#[C][Au-][c]2n(C)c3ccccc3[n+]2C)cc1 [Au‐6],16%,–,–,–
C1=CCCC=CCC1.CCn1[c-][n+](CC)c(-c2ccccc2)c1.[Br-].[Rh+] [Rh‐2],1%,67%,17%,–
"[Cl][Au].c1ccc(P(c2ccccc2)c2ccccc2)cc1 [Au‐4, (triphenylphosphine)AuCl, reference compound]",19%,50% and > 50%,78% and > 50%,–
"CCN(CC)C(=S)SSC(=S)N(CC)CC [DS, disulfiram, reference compound]",–,–,–,inhibition at 10 µM (SARS‐CoV PL^pro; read-out: inhibition of SARS-CoV PLpro): 87%; inhibition at 1 µM (SARS‐CoV‐2 PL^pro; read-out: inhibition of SARS-CoV-2 PLpro): 73%
